From the NIST ThermoML archive (doi:10.1016/j.jct.2019.03.040)

What was measured:
[1] = molar heat capacity at constant pressure; details: 101.33 kPa, Liquid, Small sample (50 mg) DSC
[2] = Liquid; for thermal diffusivity: 101.33 kPa, Laser flash apparatus

CCOC(=O)CCC(C)=O [ethyl levulinate]
Details	Critical pressure [kPa]	Critical temperature [K]	molar heat capacity at constant pressure [J/K/mol]	thermal diffusivity [m2/s]
[1], 340.98 K	–	–	285.74	–
[1], 341.48 K	–	–	286.17	–
[1], 341.98 K	–	–	286.46	–
[1], 342.48 K	–	–	286.75	–
[1], 342.98 K	–	–	285.89	–
[1], 343.48 K	–	–	286.61	–
[1], 343.98 K	–	–	286.9	–
[1], 344.48 K	–	–	287.76	–
[1], 344.98 K	–	–	288.34	–
[1], 345.48 K	–	–	287.47	–
[1], 345.98 K	–	–	288.63	–
[1], 346.48 K	–	–	288.19	–
[1], 346.98 K	–	–	287.9	–
[1], 347.48 K	–	–	288.05	–
[1], 347.98 K	–	–	288.48	–
[1], 348.48 K	–	–	288.48	–
[1], 348.98 K	–	–	288.19	–
[1], 349.48 K	–	–	289.2	–
[1], 349.98 K	–	–	289.2	–
[1], 350.48 K	–	–	289.35	–
[1], 350.98 K	–	–	289.2	–
[1], 351.48 K	–	–	289.63	–
[1], 351.98 K	–	–	289.2	–
[1], 352.48 K	–	–	289.78	–
[1], 352.98 K	–	–	290.5	–
[1], 353.48 K	–	–	289.78	–
[1], 353.98 K	–	–	290.36	–
[1], 354.48 K	–	–	290.21	–
[1], 354.98 K	–	–	289.92	–
[1], 355.48 K	–	–	289.92	–
[1], 355.98 K	–	–	289.78	–
[1], 356.48 K	–	–	289.92	–
[1], 356.98 K	–	–	291.08	–
[1], 357.48 K	–	–	290.93	–
[1], 357.98 K	–	–	290.64	–
[1], 358.48 K	–	–	290.93	–
[1], 358.98 K	–	–	290.79	–
[1], 359.48 K	–	–	291.51	–
[1], 359.98 K	–	–	292.09	–
[1], 360.48 K	–	–	291.65	–
[1], 360.98 K	–	–	292.09	–
[1], 361.48 K	–	–	292.52	–
[1], 361.98 K	–	–	291.51	–
[1], 362.48 K	–	–	292.66	–
[1], 362.98 K	–	–	292.81	–
[1], 363.48 K	–	–	293.82	–
[1], 363.98 K	–	–	293.53	–
[1], 364.48 K	–	–	293.67	–
[1], 364.98 K	–	–	294.25	–
[1], 365.48 K	–	–	294.39	–
[1], 365.98 K	–	–	295.4	–
[1], 366.48 K	–	–	294.54	–
[1], 366.98 K	–	–	295.83	–
[1], 367.48 K	–	–	295.55	–
[1], 367.98 K	–	–	295.98	–
[1], 368.48 K	–	–	295.83	–
[1], 368.98 K	–	–	296.84	–
[1], 369.48 K	–	–	296.84	–
[1], 369.98 K	–	–	296.27	–
[1], 370.48 K	–	–	296.99	–
[1], 370.98 K	–	–	296.27	–
[1], 371.48 K	–	–	296.55	–
[1], 371.98 K	–	–	296.84	–
[1], 372.48 K	–	–	296.84	–
[1], 372.98 K	–	–	296.84	–
[1], 373.48 K	–	–	296.99	–
[1], 373.98 K	–	–	297.13	–
[2], 303.15 K	–	–	–	7.9e-08
[2], 313.15 K	–	–	–	7.8e-08
[2], 323.15 K	–	–	–	7.7e-08
[2], 333.15 K	–	–	–	7.6e-08
[2], 343.15 K	–	–	–	7.5e-08
[2], 353.15 K	–	–	–	7.4e-08
[2], 363.15 K	–	–	–	7.25e-08
[2], 373.15 K	–	–	–	7.15e-08
[2], Resistive pulse heating	2970	669	–	–
